Test results as given in US20170131285A1, “METHODS AND COMPOSITIONS FOR DIAGNOSING, MONITORING AND TREATING CANCER” (INSERM (Institut National de la Sante et de la Recherche …, priority 2014, published 2017).

Key:
[1] = test system: HCT116 cells; assay: HSP70-exosomes release from HCT116 cells treated with chemotherapy drugs (BLI, flow cytometry); type: cell-based, human; conditions: for amount of HSP70-exosomes released, dose-response / number of exosomes at higher doses: HCT116, 48 h; for amount of HSP70-exosomes released, dose-response: concentrations inducing a relatively low amount of cell death, flow cytometry; for number of exosomes at higher doses: doses inducing more than 40% cell death; for amount of HSP70-exosomes released, extent of increase: HCT116, toxic equivalent concentrations: oxaliplatin 5 μM, 5FU 3 μM, paclitaxel 50 nM, gemcitabin 10 μM, doxorubicin 2.5 μM, BLI
Protocol: FIG. 7: Effect of chemotherapy drugs on HSP70-exosomes release. A) Association curves of HSP70-exosomes isolated from the supernatant of HCT116 cells treated or not with oxaliplatin (5 μM), 5FU (3 μM), paclitaxel (50 nM), gemcitabin (10 μM) and doxorubicin ([…]). For the BLI, biotinylated A8 was immobilized on streptavidin sensor tips, n=3. B-C) HCT116 cells were treated with 5FU (3, 12, 24 and 36 μM) or oxaliplatin (5, 20, 40 and 60 μM) or doxorubicin (2.5, 10, and 20 μM) during 48 h. B) concentration of HSP70-exosomes released was measured by flow cytometry. C) measured apoptosis of HCT116 (7AAD and FITC-Annexin V).
Cells were cultured in medium depleted from serum-derived exosomes. Supernatants were collected from cell lines and sequentially centrifuged at 300 g for 10 minutes (4° C.) and at 2,000 g for 10 minutes. Then, exosomes were ultracentrifugated at 100,000 g for 70 minutes and washed in PBS. The same protocol was used for urines and blood samples. To evaluate exosome concentrations, we used a Nano Sight LM10 instrument (NanoSight, Amesbury, UK).
Protein-protein interaction experiments were conducted with an Octet Red instrument (ForteBio, USA). The ligand (A8 or TLR2) was biotinylated using EZ-Link NHS-PEG4-biotin (2 nM, 30 min, RT, Thermo Fisher Scientific, Germany) and immobilized on streptavidin sensors (96-well plate black, ForteBio, USA). Functionalized sensors were incubated in PBS (10 min) then incubated with exosomes (10^6, from cancer cells lines or normal cells or mice blood or human urine, for 120 or 600 seconds) or HSP70 (concentration range from 2.5 μM to 0.52 nM) or cmHSP70 (1/1,000). All sensorgrams were corrected for baseline drift by subtracting a control sensor exposed to running buffer only. Each KD was determined with a 1:1 stoichiometry model using a global fit with Rmax unlinked by sensor (ForteBio, Data analysis software version 7.1.0.89).
Exosomes from cancer cells lines or normal cells were bound to surfactant-free white aldehyde-sulfate latex beads ([…], Invitrogen) and concentrated at 1·10^4 beads/μL. Exosomes (30 μg) were incubated with the beads suspension for 15 min and then for 1 h at room temperature (RT) in final volume of 1 mL PBS. Beads were saturated with glycine (100 mM) for 30 minutes at RT and washed twice with PBS supplemented by 3% of FBS. Expression of membranar HSP70 on cells (normal and cancerous) was determined by flow cytometry using cmHSP70 antibody. MSC2 and HCT116 cell death was measured by PS exposure, cells stained with 7AAD and FITC-Annexin V conjugate. All analyses were performed on a LSRII flow cytometer (BD Bioscience).

[2] = test system: B16F10 tumor-bearing mice; assay: HSP70-exosomes in blood of tumor-bearing mice, A8-BLI protocol; type: in vivo, mouse; conditions: cisplatin 5 mg/kg, BLI with A8 ligand
[3] = test system: B16F10 tumors; assay: B16F10 melanoma tumor model in C57/BL6 mice; type: in vivo, mouse; conditions: B16F10 tumor-bearing C57/BL6 mice, day 18; A0 or A8 3 mg/kg i.p. every two days; cisplatin single i.p. dose; 6 animals per group
Protocol: (§1) FIG. 5: A8 anti-tumor effect in mice is associated to MDSC and an immune anti-tumor response. (A) Mice were sc injected with B16F10 cells (5×10^4). On day 4, when tumor size was about 0.9 mm^3, animals were treated every two days until the end of the experiment with A0 or A8 (3 mg/kg dissolved in PBS, i.p injection). On day 5, half the animals were treated with cisplatin as a single dose (CDDP, i.p injection, 5 mg/kg). At day 18, the percentage of Gr1^+ CD11b^+ cells in the spleen collected from the different groups of mice was analyzed by flow cytometry (6 animals per group). As a MDCS negative control (Ctl) we used animals with no tumor cells injected. Right panels, a representative immunoblot of pSTAT3 in the MDSC (Gr1^+ CD11b^+ cells) isolated from the spleen of control animals (A0/PBS) or A8 and CDDP-treated animals (A8/CDDP). 14-3-3 is used as a loading control. (B) Analysis of tumor growth in the animals described above. Tumor size was measured every two days (6 animals per group). The white symbols represent the tumors from animals treated with cisplatin. (C) HSP70-exosomes isolated from B16F10 cells treated or not with cisplatin (CDDP, 25 μM) were determined by flow cytometry. Data represent the percentage of MFI+/−SD (n=3); *, p<0.05. (D) Association curves of HSP70-exosomes present in tumor-bearing mice sera treated or not with cisplatin (5 mg/kg). For the biolayer interferometry, biotinylated A8 was immobilized on streptavidin sensor tips. Curves represent mean values of triplicate measurements for each concentration (for each curve, the blood of 5 mice per group was pooled).
Exponentially growing B16F10 were harvested and resuspended in an RPMI medium without FBS. In vivo studies were performed in wild-type C57/BL6 mice (Charles River). B16F10 cells (5·10^4) were injected s.c. into the right flank Tumor volumes were evaluated every 2 days. Mice were treated with a control peptide aptamer A0 (3 mg/kg) or the HSP70 aptamer A8 (3 mg/kg) and half mice were treated with cisplatin (CDDP, […]). The animals were treated according to the guidelines of the Ministère de la Recherche et de la Technologie, France. All experiments were approved by the Comité d'Ethique de l'Université de Bourgogne.
MDSC cell isolation and analysis: Single-cell suspensions were prepared from spleens, and red cells were removed using ammonium chloride lysis buffer. Gr-1+ cells were isolated from spleens of different group of tumor-bearing mice or naive mice by labeling the cells with PE Cy7 Ab to Gr-1, then using magnetic PE Cy7 beads and LS MACS columns (Miltenyi Biotec). For extracellular staining of immune markers, single-cell suspensions were prepared. We incubated 1·10^6 freshly prepared cells with fluorochrome-coupled CD11b antibody (eBioscience). All events were acquired by a BD Bioscience LSR-II device and analyzed with FlowJo (Tree Star).
Animals were killed 18 days after cell injection. The site of tumor cell injection was resected and snap-frozen in liquid nitrogen. An immunohistochemical study of tumor-infiltrating inflammatory cells was performed on acetone-fixed 5 μm cryostat sections.
Next, we tested whether A8 was also able to block the immunosuppressive effect of MDSC in an in vivo cancer model. We performed subcutaneous injection at day 0 of B16F10 cells or media as a control in C57/BL6 mice. When tumor size reached about 0.9 mm^3 ([…]), mice were treated i.p. with a control peptide aptamer (A0) or A8 every two days until the end of the experiment. When indicated, half of the animals received cisplatin (CDDP, […], i.p.) as a single dose. Tumor growth was measured every two days. After 18 days, we analyzed the percentage of MDSC present in mice spleen (6 animals per group) by FACS using the specific markers Gr1^+ and CD11b^+ (FIG. 5A). […]

[4] = test system: B16F10 cells; assay: HSP70-exosomes released by cultured B16F10 cells, flow cytometry; type: cell-based, mouse; conditions: cisplatin 25 μM, FACS
Protocol: as §1, with “The white symbols represent the tumors from animals treated with cisplatin.” left out, “Data represent the percentage of MFI+/−SD (n=3); *, p<0.05. (D) Association curves of HSP70-exosomes present in tumor-bearing mice sera treated or not with cisplatin (5 mg/kg). For the biolayer interferometry, biotinylated A8 was immobilized on streptavidin sensor tips. Curves represent mean values of triplicate measurements for each concentration (for each curve, the blood of 5 mice per group was pooled).” left out
B16F10, CT26, HCT116 and SW480 cells were cultured for 48 h or 24 h with cisplatin (CDDP) treatment in medium depleted from serum-derived exosomes by overnight centrifugation at 100,000 g. […] The concentration of exosomal proteins was quantified by Lowry assay (Biorad). […]

[5] = test system: MSC2 cells; assay: pSTAT3 western blot in MSC2 cells incubated with tumor-derived exosomes; type: cell-based; conditions: exosomes from CT26, B16F10, HCT116, SW480; 4 h and 6 h; aptamer 16 μM
Protocol: FIG. 4: A8 blocks the activation and proliferation of MSC2 cells. (A) IL-6 concentration was determined by ELISA in the supernatant of MSC2 cells incubated or not for 24 h with exosomes (from B16F10) in the presence or absence of A8. *, p<0.05, (n=3). (B) A representative image of a western blot showing the kinetics of STAT3 phosphorylation in MCS2 cells incubated or not with exosomes isolated from B16F10, CT26 or HCT116 cells together with a peptide control (TDE) or A8 (TDE/A8). 14-3-3 is used as a loading control. In the right panels, the amount of pSTAT3 was quantified by densitometric analysis. *, p<0.05, n=4.
Five millions of MSC2 cells were incubated with or without exosomes isolated from B16F10, CT26, HCT116 or SW480 cells in the presence or absence of A8 during 4 h or 6 h. Cells were isolated, lysed and analysed for pSTAT3 by western blotting.
MSC2 (2·10^6) or MDSC (2·10^6) were incubated alone or with exosomes (from B16F10, CT26, HCT116, SW480) in the absence or presence of A8 or A17 (16 μM) during 6 hours (RPMI 10% FBS, 5% of CO2 at 37° C.). Every 2 hours, […] cells were sampled and centrifugated 5 min at 300 g. Cells were lysed in lysis buffer (50 mM HEPES (pH 7.6), 150 mM NaCl, 5 mM EDTA, and 0.1% NP40 and anti-phosphatases, Roche). Then, pSTAT3 and STAT3 expression were analyzed by western blotting.

O=c1[nH]cc(F)c(=O)[nH]1 [5-fluorouracil]
amount of HSP70-exosomes released, dose-response [1]: increased with drug concentration
number of exosomes at higher doses [1]: drastically decreased
amount of HSP70-exosomes released, extent of increase [1]: greater

N.N.[Cl][Pt][Cl] [cisplatin]
amount of HSP70-exosomes in the blood [2]: much stronger
percentage of MDSC (Gr1+ CD11b+) in spleen [3]: 9+/−0.9%
amount of HSP70-exosomes released by B16F10 cancer cells [4]: strongly increased
amount of HSP70-exosomes released, dose-response [1]: increased with drug concentration
number of exosomes at higher doses [1]: drastically decreased

COc1cccc2c1C(=O)c1c(O)c3c(c(O)c1C2=O)C[C@@](O)(C(=O)CO)C[C@@H]3O[C@H]1C[C@H](N)[C@H](O)[C@H](C)O1 [doxorubicin]
amount of HSP70-exosomes released, dose-response [1]: increased with drug concentration
number of exosomes at higher doses [1]: drastically decreased
amount of HSP70-exosomes released, extent of increase [1]: lesser

Nc1ccn([C@@H]2O[C@H](CO)[C@@H](O)C2(F)F)c(=O)n1 [gemcitabine]
amount of HSP70-exosomes released, extent of increase [1]: induce an increase in the amount of HSP70-exosomes

O=C1[O][Pt]2([NH][C@@H]3CCCC[C@H]3[NH]2)[O]C1=O [oxaliplatin]
amount of HSP70-exosomes released, extent of increase [1]: greater

CC(=O)O[C@H]1C(=O)[C@@]2(C)[C@H]([C@H](OC(=O)c3ccccc3)[C@]3(O)C[C@H](OC(=O)[C@H](O)[C@@H](NC(=O)c4ccccc4)c4ccccc4)C(C)=C1C3(C)C)[C@]1(OC(C)=O)CO[C@@H]1C[C@@H]2O [paclitaxel]
amount of HSP70-exosomes released, extent of increase [1]: induce an increase in the amount of HSP70-exosomes

YCAYYSPRHKTTF (Synthetic Aptamer A17) [reference compound]
STAT3 phosphorylation (activation) in MSC2 induced by tumor-derived exosomes [5]: did not interfere
